Laboratory results reported in patent US10513694B2, “Thienopyrrole compounds and uses thereof” (PROMEGA CORPORATION, priority 2015, dated 2019).

How the values were obtained:
[1] = target: T1, Nluc (Oplophorus gracilirostris, UniProt Q9GV45, A31E/A60N/A81I/F95D/I117V/K70R/L54V/L99Q/M102K/N193R/P142E/Q151K/Q38R/Q45L/V71I/Y165I); experiment: Multiplex RealTime-Glo / Caspase-Glo 3/7 in MCF7 cells; assay type: cell-based; set-up: purchased Promega Corporation
Procedure: (§1) A) In a Corning 3570 assay plate, MCF7 cells were plated at 1,000 cells/well in 20 μL of cell culture media (EMEM supplemented with 0.01 mg/mL human recombinant insulin and 10% fetal bovine serum) and incubated in overnight. 10 μL of 4× REALTIME-GLO™ MT Cell Viability reagents (Promega Corporation) in media or 10 μL media only was added to the cells. 10 μL of 40 μM staurosporine in media or 10 μL media only (control) was added to the cells. The cells were incubated, and caspase activation monitored at 5.5 hrs post-reagent addition. To monitor caspase activation, 40 μL CASPASE-GLO® 3/7 Assay Reagent (Promega Corporation), either on its own (Caspase) or with 200 μM of JRW-0004, JRW-0013, or JRW-0042, was added. Reactions were incubated at RT, and luminescence was measured at 1 hr 10 min post-reagent addition on Tecan M1000 Pro plate reader.
(§2) When comparing the signal generated from the CASPASE-GLO® reagent in media only versus the signal generated in media containing REALTIME-GLO™ reagent, the signal is higher in the multiplex reaction.

[2] = system: Nluc enzyme; experiment: as above; assay type: cell-based
Procedure: as §1, §2

[3] = system: B2AR-Nluc or Nluc-B2AR fusion protein; experiment: Cell permeability with bioluminescent imaging (HeLa, B2AR-Nluc / Nluc-B2AR); assay type: cell-based; conditions: 30 μM compound, 10 μM furimazine
Procedure: HeLa cells were transiently transfected with Beta-2 Adrenergic Receptor-Nluc (B2AR-Nluc; C-Terminus Nluc) or Nluc-Beta-2 Adrenergic Receptor (Nluc-B2AR; N-terminus Nluc) fusion protein to anchor and orient Nluc intracellularly or extracellularly, respectively. 24 hrs post-transfection, cells were treated with −/+30 μM of a thienopyrrole compound, JRW-0147, JRW-0051, and JRW-0138. 10 μM furimazine was added, and luminescence was detected by imaging on the Olympus LV200.

[4] = system: Src-Nluc fusion protein; experiment: Target engagement model (Src-Nluc BRET); assay type: cell-based; conditions: HEK293 Src-Nluc -/+ 50 μg/mL digitonin; 1 μM Dasatinib-DY605 tracer; 2 hrs
Procedure: HEK293 cells were transiently transfected with Src-Nluc fusion protein. 24 hours post-transfection, cells were treated with −/+50 μg/mL digitonin to simulate a live and lytic scenario, respectively. Intact cells and permeabilized cells were labeled with 1 μM Dasatinib-DY605 tracer (impermeable) and treated with a cell impermeable thienopyrrole compound JRW-0147 response curve for 2 hrs. 10 μM furimazine was added, and a BRET ratio 610/450 nm was recorded.

[5] = target: T1, Nluc; experiment: Multiplex RealTime-Glo / Caspase-Glo 3/7 in DMEM media; assay type: biochemical; set-up: purchased Promega Corporation; conditions: for Avg (luminescence), 1 hour: RealTime-Glo reagent in DMEM + Caspase-Glo 3/7
Procedure: In a Corning 3570 assay plate, 1× REAL-TIME-GLO™ MT Cell Viability assay reagent was prepared in 40 μL DMEM media (n=3) and incubated overnight. Next, 40 μL of a titration of JRW-0147 or JRW-0344 (2× concentration in CASPASE-GLO® 3/7 Assay Reagent (Promega Corporation)) was added. The reactions were incubated at room temperature, and luminescence determined at 1 hour.

[6] = system: HEK293 cells; experiment: Cell viability and toxicity (CellTiter-Glo); assay type: cell-based; conditions: up to 100 μM after 18 hrs
Procedure: HEK293 cells were plated at 20 k cells/well and exposed to vehicle (DMSO), digitonin (positive control for cell death), or JRW-0344 for 10 min/30 min/120 min/240 min/or 18 hrs. CellTiter-Glo (Promega Corp.) was added, and luminescence measured.

[7] = system: SRC-Nluc or Nluc-HaloTag; experiment: Inhibition of extracellular luciferase activity (SRC-Nluc / Nluc-HaloTag BRET); assay type: cell-based; conditions: HEK293; 1 μM Dasatinib-DY605 (SRC-Nluc) or 100 nM NanoBRET-618 (Nluc-HaloTag)
Procedure: HEK293 were transiently transfected with either SRC-Nluc or Nluc-HaloTag. 24 hrs post-transfection, 20 k/cells were plated into wells of a 96-well plate (Costar 3600). 1 μM of the cell impermeable tracer Dasatinib-DY605 was added to the HEK293 SRC-Nluc expressing cells, and 100 nM of the cell permeable tracer NanoBRET-618, was added to the Nluc-HaloTag expressing cells. Both HEK293 SRC-Nluc and Nluc-HaloTag cells were exposed to a dose-response curve of JRW-0344.

[8] = 10 μM Stauro vs Control, 200 μM compound
[9] = CASPASE-GLO 3/7 reagent with 200 μM compound, 1 hr 10 min

T1 sequence (Q9GV45 28-196 with tags or gaps with the stated changes limits assumed): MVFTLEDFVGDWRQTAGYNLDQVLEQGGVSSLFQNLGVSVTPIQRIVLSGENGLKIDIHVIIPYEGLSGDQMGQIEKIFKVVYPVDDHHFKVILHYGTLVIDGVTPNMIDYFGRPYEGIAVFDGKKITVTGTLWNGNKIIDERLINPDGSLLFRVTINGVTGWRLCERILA

Row | Structure (SMILES) | S/B, 1 hour ([5]; [cmpd] final 0.09765625 μM) | Avg (luminescence), 1 hour ([5]; [cmpd] final 0.09765625 μM) | S/B, 1 hour ([5]; [cmpd] final 0.1953125 μM) | Avg (luminescence), 1 hour ([5]; [cmpd] final 0.1953125 μM) | S/B, 1 hour ([5]; [cmpd] final 0.390625 μM) | Avg (luminescence), 1 hour ([5]; [cmpd] final 0.390625 μM) | S/B, 1 hour ([5]; [cmpd] final 0.78125 μM) | Avg (luminescence), 1 hour ([5]; [cmpd] final 0.78125 μM) | S/B, 1 hour ([5]; [cmpd] final 1.5625 μM) | Avg (luminescence), 1 hour ([5]; [cmpd] final 1.5625 μM) | S/B, 1 hour ([5]; [cmpd] final 3.125 μM) | Avg (luminescence), 1 hour ([5]; [cmpd] final 3.125 μM) | S/B, 1 hour ([5]; [cmpd] final 6.25 μM) | Avg (luminescence), 1 hour ([5]; [cmpd] final 6.25 μM) | S/B, 1 hour ([5]; [cmpd] final 12.5 μM) | Avg (luminescence), 1 hour ([5]; [cmpd] final 12.5 μM) | S/B, 1 hour ([5]; [cmpd] final 25 μM) | Avg (luminescence), 1 hour ([5]; [cmpd] final 25 μM) | S/B, 1 hour ([5]; [cmpd] final 50 μM) | Avg (luminescence), 1 hour ([5]; [cmpd] final 50 μM) | other results
1 | CCN(C(=O)Cn1c(C(=O)N[C@H]2CC[C@H](C(=O)OC)CC2)cc2sccc21)c1cccc(C)c1 [JRW-0013, trans-methyl-4-(4-(2-(ethyl(m-tolyl)amino)-2-oxoethyl)-4H-thieno[3,2-b]pyrrole-5-carboxamido)cyclohexane-1-carboxylate] |  |  |  |  |  |  |  |  |  |  |  |  |  |  |  |  |  |  |  |  | Fold Cont, Media containing RealTime-Glo [1, 8]: 6.29; Avg (luminescence), Media containing RealTime-Glo, 10 μM Stauro [1, 9]: 54338; Avg (luminescence), Media containing RealTime-Glo, Control [1, 9]: 8636; Fold Cont, Media only [2, 8]: 6.85; Avg (luminescence), Media only, 10 μM Stauro [2, 9]: 55282; Avg (luminescence), Media only, Control [2, 9]: 8069
2 | CCN(C(=O)Cn1c(C(=O)N[C@H]2CC[C@H](C(=O)NCCCCCC(=O)O)CC2)cc2sccc21)c1cccc(C)c1 [JRW-0147, 6-(trans-4-(4-(2-(ethyl(m-tolyl)amino)-2-oxoethyl)-4H-thieno[3,2-b]pyrrole-5-carboxamido)cyclohexane-1-carboxamido)hexanoic acid] | 0.84 | 117067 | 0.89 | 124500 | 0.85 | 117833 | 0.77 | 106867 | 0.47 | 65173 | 0.32 | 45167 | 0.20 | 27817 | 0.12 | 17293 | 0.08 | 10699 | 0.06 | 8136 | Permeability and inhibition of extracellular / intracellular Nluc by imaging (FIG. 14) [3]: impermeable and inhibited extracellular Nluc and enhanced intracellular Nluc; Inhibition of BRET in cell debris vs inside cells (FIGS. 15B-15C) [4]: inhibited BRET in cell debris, but not BRET inside cells; S/B, 1 hour ([5]; [cmpd] final 100 μM): 0.05; Avg (luminescence), 1 hour ([5]; [cmpd] final 100 μM): 6568
3 | CCN(C(=O)Cn1c(C(=O)N[C@H]2CC[C@H](C(=O)NCCCCCCS(=O)(=O)[O-])CC2)cc2sccc21)c1cccc(C)c1.[Na+] [JRW-0344, Sodium 6-(trans-4-(4-(2-(ethyl(m-tolyl)amino)-2-oxoethyl)-4H-thieno[3,2-b]pyrrole-5-carboxamido)cyclohexane-1-carboxamido)hexane-1-sulfonate] | 0.71 | 112533 | 0.80 | 126333 | 0.88 | 138900 | 0.61 | 95993 | 0.41 | 65097 | 0.21 | 33523 | 0.12 | 19560 | 0.10 | 15547 | 0.06 | 9761 | 0.04 | 6790 | Toxicity (FIG. 18A) [6]: no apparent toxicity; Inhibition of BRET (FIGS. 20A-20C) [7]: inhibits BRET in cell debris in the HEK293 SRC-Nluc expressing cells, but not in HEK293 Nluc-HaloTag expressing cells; S/B, 1 hour ([5]; [cmpd] final 100 μM): 0.03; Avg (luminescence), 1 hour ([5]; [cmpd] final 100 μM): 5523
